Measurements published in US8362067B2, “3-aminoalkyl-1,3-dihydro-2H-indol-2-one derivatives, preparation thereof and therapeutic use thereof” (Sanofi, priority 2008, dated 2013).
pIC50: −log10 of the molar value. Where a name gives a salt, the structure may show the parent alone.

Assays:
[1] = target: human arginine-vasopressin V1a receptors (Homo sapiens, UniProt P37288); assay: Affinity for human V1a receptors: displacement of [3H]-AVP; type: binding; details: for pIC50: binding, displacement of [3H]-AVP; for selectivity for human AVP V1a receptors and for human AVP V1b receptors: versus V2 and/or oxytocin receptors
Sequence of human arginine-vasopressin V1a receptors (P37288 whole entry): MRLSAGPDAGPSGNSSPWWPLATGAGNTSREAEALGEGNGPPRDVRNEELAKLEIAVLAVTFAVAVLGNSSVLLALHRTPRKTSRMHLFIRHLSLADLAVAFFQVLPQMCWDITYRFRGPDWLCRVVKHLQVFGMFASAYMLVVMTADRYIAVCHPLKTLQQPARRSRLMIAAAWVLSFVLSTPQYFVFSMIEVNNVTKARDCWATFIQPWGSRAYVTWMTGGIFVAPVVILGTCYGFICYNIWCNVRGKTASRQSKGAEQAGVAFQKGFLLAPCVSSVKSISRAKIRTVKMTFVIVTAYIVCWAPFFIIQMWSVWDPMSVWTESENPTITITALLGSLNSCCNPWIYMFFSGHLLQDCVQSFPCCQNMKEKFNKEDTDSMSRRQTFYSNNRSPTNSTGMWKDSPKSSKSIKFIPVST
Description: (§1) The affinity of the compounds of formula (I) according to the invention for arginine-vasopressin V1a receptors was determined in vitro using the method described by M. Thibonnier et al., J. Biol. Chem., 1994, 269, 3304-3310. This method consists in studying in vitro the displacement of tritiated arginine-vasopressin ([^3H]-AVP) at the V1a receptors present on membrane or cell preparations carrying rat or human V1a receptors.
(§2) The comparative pharmacological results of Compounds Nos. 17, 38, 46, 107 and 108 according to the invention with the compounds α and β of the prior art on the various in vitro tests measuring the affinity at human V1a, V1b, V2 and oxytocin receptors are illustrated in the following TABLE XV. The results are expressed by the 50% inhibitory concentration (IC50) expressed on a nanomolar basis (nM).

human V1b receptors = target: T1, human V1b receptors (Homo sapiens, UniProt P47901); assay: Affinity for human V1b receptors: displacement of [3H]-AVP; details: binding
T1 sequence (P47901 1-424): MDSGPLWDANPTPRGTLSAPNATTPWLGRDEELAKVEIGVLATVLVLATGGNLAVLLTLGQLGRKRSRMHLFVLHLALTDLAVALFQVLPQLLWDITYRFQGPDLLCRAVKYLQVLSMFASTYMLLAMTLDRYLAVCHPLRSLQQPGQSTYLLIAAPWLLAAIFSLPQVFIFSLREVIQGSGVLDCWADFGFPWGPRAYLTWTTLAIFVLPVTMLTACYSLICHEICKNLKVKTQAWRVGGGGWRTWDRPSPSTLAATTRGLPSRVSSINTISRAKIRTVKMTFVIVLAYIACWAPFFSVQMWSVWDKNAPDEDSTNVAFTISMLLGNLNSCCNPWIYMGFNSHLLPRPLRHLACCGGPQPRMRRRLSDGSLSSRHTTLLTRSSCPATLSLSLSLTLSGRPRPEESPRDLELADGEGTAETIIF
Description: as §1, with “V1b” for “V1a”, “Y. de Keyser” for “M. Thibonnier”, “al. in Febs Letters,” for “al., J. Biol. Chem.,”, “356, 215-220.” for “269, 3304-3310.”, “on” for “on membrane or”, “carrying” for “carrying rat or”
as §2

human V2 receptors = human V2 receptors (Homo sapiens, UniProt P30518); assay: Affinity for vasopressin V2 receptors; type: binding; details: for pIC50: binding
Sequence of human V2 receptors (P30518 whole entry): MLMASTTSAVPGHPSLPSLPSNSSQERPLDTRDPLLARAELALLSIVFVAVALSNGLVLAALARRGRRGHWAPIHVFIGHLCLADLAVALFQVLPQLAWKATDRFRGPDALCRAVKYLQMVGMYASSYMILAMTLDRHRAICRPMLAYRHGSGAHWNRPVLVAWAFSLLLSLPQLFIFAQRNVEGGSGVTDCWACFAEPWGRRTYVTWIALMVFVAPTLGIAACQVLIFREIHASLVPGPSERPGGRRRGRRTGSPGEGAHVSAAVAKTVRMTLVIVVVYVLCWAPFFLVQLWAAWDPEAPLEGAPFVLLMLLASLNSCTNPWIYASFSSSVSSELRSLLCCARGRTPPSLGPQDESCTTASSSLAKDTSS
Text: The affinity of the compounds of formula (I) according to the invention for vasopressin V2 receptors was also studied (method described by M. Birnbaumer et al. in Nature (Lond.), 1992, 357, 333-335).
as §2

[2] = target: T2, human uterine oxytocin receptor (Homo sapiens, UniProt P30559); assay: Affinity for oxytocin receptors: displacement of a radioiodinated oxytocin analog; type: binding; details: for pIC50: binding, radioiodinated oxytocin analog
T2 construct: expressed in transfected cells
T2 sequence (P30559 1-389): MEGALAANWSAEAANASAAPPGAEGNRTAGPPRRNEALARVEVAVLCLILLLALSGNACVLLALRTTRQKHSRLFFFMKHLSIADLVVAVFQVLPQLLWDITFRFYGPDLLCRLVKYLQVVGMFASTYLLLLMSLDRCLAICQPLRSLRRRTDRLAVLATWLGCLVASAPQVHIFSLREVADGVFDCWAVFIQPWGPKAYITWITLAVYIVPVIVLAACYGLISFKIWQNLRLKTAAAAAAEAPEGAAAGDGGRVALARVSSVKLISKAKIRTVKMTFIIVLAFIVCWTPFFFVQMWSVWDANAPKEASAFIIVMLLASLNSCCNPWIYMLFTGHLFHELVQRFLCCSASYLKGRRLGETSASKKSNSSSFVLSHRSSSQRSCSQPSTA
Description: The affinity of the compounds according to the invention for oxytocin receptors was determined in an in vitro binding test using the method described by J. Elands et al. in Eur. J. Pharmacol., 1987, 147, 197-207. This method consists in studying in vitro the displacement of a radioiodinated oxytocin analog at the oxytocin receptors in a cell membrane preparation transfected with the human uterine oxytocin receptor.
as §2

human V1a receptors = human V1a receptors (Homo sapiens, UniProt P37288); assay: Measurement of intracellular calcium (FLIPR) on cells expressing human V1a receptors; type: cell-based; details: blocking the pharmacological effects brought about by arginine-vasopressin (FLIPR and platelet aggregation tests)
Sequence of human V1a receptors (P37288 whole entry): as the sequence (P37288 whole entry) above
Description: The agonist or antagonist nature of the compounds is determined in vitro in a test for the measurement of intracellular calcium (FLIPR) on cells expressing human V1a receptors according to the general technique described in Sullivan et al., Methods Mol. Biol., 1999, 114, 125-133, using 1 μM of Fluo4 AM, and in a test for platelet aggregation induced with AVP on human PRP (platelet-rich plasma) according to the methodology described in J. Clin. Invest., 1993, 92, 224-231. The compounds are preincubated 30 minutes before the addition of the arginine-vasopressin in order to determine the agonist and antagonist properties of these molecules.

melting point | pIC50 [1] | pIC50 (human V1b receptors) | pIC50 (human V2 receptors) | pIC50 [2] | Compound | also measured
218 °C |  |  |  |  | COc1cc2c(cc1Cl)C(CCCN1CCNCC1)(c1ccccc1F)C(=O)N2S(=O)(=O)c1ccc(OC(F)F)cc1 (stereo not drawn) (as salt: HCl) [compound 24, 5-chloro-1-{[4-(difluoromethoxy)phenyl]sulfonyl}-3-(2-fluorophenyl)-6-methoxy-3-(3-(piperazin-1-yl)propyl)-1,3-dihydro-2H-indol-2-one] | 
220 °C |  |  |  |  | COc1cc2c(cc1Cl)C(CCCN1CCNCC1)(c1ccccc1F)C(=O)N2S(=O)(=O)c1ccc(OC(F)(F)F)cc1 (stereo not drawn) (as salt: HCl) [compound 25, 5-chloro-3-(2-fluorophenyl)-6-methoxy-3-(3-(piperazin-1-yl)propyl)-1-{[4-(tri-fluoromethoxy)phenyl]sulfonyl}-1,3-dihydro-2H-indol-2-one] | 
238 °C |  |  |  |  | COc1cc2c(cc1Cl)C(CCCN1CCNCC1)(c1ccccc1F)C(=O)N2S(=O)(=O)c1ccccc1 (stereo not drawn) (as salt: HCl) [compound 26, 5-chloro-3-(2-fluorophenyl)-6-methoxy-1-(phenylsulfonyl)-3-(3-(piperazin-1-yl)propyl)-1,3-dihydro-2H-indol-2-one] | 
152 °C |  |  |  |  | COc1ccc(S(=O)(=O)N2C(=O)C(CCCN3CCNCC3)(c3ccccc3F)c3cc(F)c(OC)cc32)cc1C (stereo not drawn) (as salt: HCl) [compound 107] | 
160 °C |  |  |  |  | COc1ccc(S(=O)(=O)N2C(=O)C(CCCN3CCNCC3)(c3ccccc3F)c3cc(OC)c(OC)cc32)cc1C (stereo not drawn) (as salt: HCl) [compound 108] | 
232 °C | 8.62 | < 6.00 | 6.35 | 6.41 | COc1cc2c(cc1Cl)C(CCCN1CCNCC1)(c1ccccc1F)C(=O)N2S(=O)(=O)c1ccc(OC(C)C)cc1.Cl (single isomer, unassigned) [Compound No. 17, 5-Chloro-3-(2-fluorophenyl)-1-[(4-isopropoxyphenyl)sulfonyl]-6-methoxy-3-[3-(piperazin-1-yl)propyl]-1,3-dihydroindol-2-one hydrochloride] | agonist or antagonist nature at V1a receptors (human V1a receptors): antagonists of V1a receptors
163 °C |  |  |  |  | COc1ccc(S(=O)(=O)N2C(=O)C(CCCC3CCNCC3)(c3ccccc3F)c3cc(Cl)c(OC)cc32)c(OC)c1.Cl (stereo not drawn) [Compound No. 1] | 
175 °C |  |  |  |  | COc1ccc(S(=O)(=O)N2C(=O)C(CCCC3CCNCC3)(c3ccccc3F)c3cc(Cl)c(OC)cc32)c(OC)c1.Cl (stereo not drawn) [Compound No. 2] | 
205 °C |  |  |  |  | COc1cc2c(cc1Cl)C(CCCN1CCN(C)CC1)(c1ccccc1F)C(=O)N2S(=O)(=O)c1ccc(OC(C)C)cc1.Cl (stereo not drawn) [Compound No. 13, 5-Chloro-3-(2-fluorophenyl)-1-[(4-isopropoxyphenyl)sulfonyl]-6-methoxy-3-[3-(4-methylpiperazin-1-yl)propyl]-1,3-dihydroindol-2-one hydrochloride] | agonist or antagonist nature at V1a receptors (human V1a receptors): antagonists of V1a receptors
 | 8.96 | < 6.00 | < 6.00 | 6.30 | COc1cccc(S(=O)(=O)N2C(=O)C(CCCN3CCN(C)CC3)(c3ccccc3F)c3cc(Cl)c(OC)cc32)c1 (stereo not drawn) [Compound No. 38] | 
 | 8.62 | 6.19 | < 6.00 | 6.42 | COc1cc2c(cc1Cl)C(CCCN1CCNCC1)(c1ccccc1F)C(=O)N2S(=O)(=O)c1ccc(O)cc1 (stereo not drawn) [Compound No. 46] | 
 |  |  |  |  | CCN(CC)C(=O)Nc1ccc(S(=O)(=O)N2C(=O)C(NCCC3CCNCC3)(c3ccccc3Cl)c3cc(Cl)c(Cl)cc32)cc1 (stereo not drawn) [Compound α, 3-[4-[[5,6-dichloro-3-(2-chlorophenyl)-2-oxo-3-[(2-(piperidin-4-yl)ethyl)amino]-2,3-dihydro-1H-indol-1-yl]sulfonyl]phenyl]-1,1-diethylurea, reference compound] | affinity for human AVP V1a receptors [1]: good affinity; selectivity for human AVP V1a receptors and for human AVP V1b receptors [1]: not selective; affinity for human AVP V2 receptors (human V2 receptors): good affinity; affinity for oxytocin receptors [2]: good affinity
 |  |  |  |  | CCN(CC)C(=O)Nc1ccc(S(=O)(=O)N2C(=O)C(NCCC3CCNCC3)(c3ccccc3Cl)c3cc(Cl)c(C)cc32)cc1 (stereo not drawn) [Compound β, 3-[4-[[5-chloro-3-(2-chlorophenyl)-6-methyl-2-oxo-3-[(2-(piperidin-4-yl)ethyl)amino]-2,3-dihydro-1H-indol-1-yl]sulfonyl]phenyl]-1,1-diethylurea, reference compound] | affinity for human AVP V1a receptors [1]: good affinity; selectivity for human AVP V1a receptors and for human AVP V1b receptors [1]: not selective; affinity for human AVP V2 receptors (human V2 receptors): good affinity
88 °C |  |  |  |  | CCOc1ccc(S(=O)(=O)N2C(=O)C(CCCN3CCC(F)(F)CC3)(c3ccccc3F)c3cc(Cl)c(OC)cc32)cc1OC (stereo not drawn) [compound 9, 5-chloro-3-[3-(4,4-difluoropiperidin-1-yl)propyl]-1-[(4-ethoxy-3-methoxy-phenyl)sulfonyl]-3-(2-fluorophenyl)-6-methoxy-1,3-dihydro-2H-indol-2-one] | 
 | 8.07 | 6.85 | < 6.00 | < 6.00 | COc1ccc(S(=O)(=O)N2C(=O)C(CCCN3CCNCC3)(c3ccccc3F)c3cc(F)c(OC)cc32)cc1C (stereo not drawn) [compound 107] | 
 | 8.30 | 6.49 | < 6.00 | < 6.00 | COc1ccc(S(=O)(=O)N2C(=O)C(CCCN3CCNCC3)(c3ccccc3F)c3cc(OC)c(OC)cc32)cc1C (stereo not drawn) [compound 108] | 
